Values joined by “and” are separate entries in the source; they are usually repeats but may differ in a detail not shown here. Equal entries are not always repeated.
Assays:
[1] = Transdermal diffusion (flux) of aqueous arecoline through human cadaver skin, Franz diffusion cell; type: in vitro ADME
Procedure: In order further to test the permeability of arecoline to human skin, the transdermal diffusion of aqueous arecoline was monitored using human cadaver skin mounted in a Franz diffusion cell; see Current Problems in Dermatology, 7, 58 (1978) and the description of Franz diffusion cells and apparatus published by the Crown Glass Company, a copy of which may be found in the file history of this case. The flux, J, of each solution was calculated from a plot of change in concentration versus time.
The transdermal diffusion of arecoline was studied in several aqueous buffers from pH values of 6.4 to 9.0.
Most of the skin samples were obtained from the back area of human cadavers. There was no systematic study to determine if the choice of donor-side would change the rate; however, it is presumed that the rate will be fastest in portions of the anatomy where the stratum corneum is relatively thin (chest, back, anterior forearm) and slowest where the stratum corneum is thickest (heel of hand, bottom of foot).
Franz diffusion cells utilize the finite dose technique of in vitro drug delivery. Human cadaver skin was mounted in a diffusion chamber where it remined in constant contact with solution on both sides. The stratum corneum was in contact with a thin layer of concentrated drug in solution (donor side). The receiver side contained a constantly stirred, isotonic saline solution maintained at 32° C. Diffusion of the compound was monitored by removing aliquots from the receiver side and analyzing these samples by HPLC.
The human skin used in all experiments was obtained from a medical school. All cadavers were refrigerated at death and excision was performed within 24 hours post-mortem. The skin was first treated with Betadine surgical scrub (Povidone-Iodine solution) and surfactant (the skin was scrubbed if dirty), rinsed with sterile water and then with Betadine rinse solution. The skin was then air-dried and swabbed with mineral oil prior to excision. A dermatome was used for excising the skin to […]. (-350 microns) thickness. Saline solution was used to rinse the excess mineral oil from the skin prior to treatment with Eagle's minimole essential medium (minerals, amino acids and sugars). To this solution, 15% glycerol was added and the skin was allowed to set for two hours. It was then removed from solution, packaged and frozen in liquid N2. The samples, packed in dry ice were shipped in styrofoam containers and kept frozen until use.
For the flux experiments, skin samples were removed from the freezer and thawed immediately prior to use. The samples were examined visually for any tears or holes, then cut into smaller pieces, peeled from the gauze backing and mounted across the diffusion chamber with the stratum corneum side up. The donor-side cap was placed on top and the unit was clamped in place. The receiver-side was filled with a saline solution and stirred. The material in the receiver-side was sterile normal saline solution, which was adjusted to approximate the tonicity of the buffer solution on the donor-side. One ml of the drug solution was pipeted onto the donor-side of the skin and 50 microliter aliguots were withdrawn from the receiver-side at the various time intervals. These samples were injected onto an HPLC column under the aforementioned conditions.
The donor solutions were prepared as 1.0 M (approximately 20% W/V) arecoline HCl or arecoline HBr in a phosphate, citrate, borate buffer adjusted to various pH values. Each flux experiment was repeated three to five times.

[2] = Dissociation to the free base in buffer; type: physicochemical; settings: pH 10 buffer
From the text: (§1) The partion coefficient (K) of a compound between an aqueous phase and mineral oil has been used as an indication of its potential to diffuse across skin. Permeability appears to be optimal when the partition coefficient is 1. Arecoline in pH 10 buffer (99.9% dissociation to the free base) yielded partition coefficients of 0.756 and 0.654 for concentrations of 1.0 M and 0.01 M, respectively. Thus, arecoline in its free base form is expected to have good in vitro transdermal flux.

[3] = Partition coefficient (K) between aqueous phase and mineral oil; type: physicochemical; settings: pH 10 buffer
From the text: as §1

[4] = Stability of arecoline in solution; type: physicochemical; settings: alkaline buffers

Compound: COC(=O)C1=CCCN(C)C1 [arecoline]
- rate of arecoline diffusion versus pH ([1]; aqueous buffers, pH 6.4 to 9.0): increases with increasing pH values
- difference in rate between Caucasian and Negro skin ([1]; lower pH values (below 8)): differences were observed between these two skin types
- Flux ([1]; pH 6.4 of 1M solution, skin RC (Right Chest), donor N): 0.017 mg/cm^2 /hr.
- Mean Flux ([1]; pH 6.4 of 1M solution, skin donor N): 0.017 mg/cm^2 /hr.
- Mean Flux ([1]; pH 7.0 of 1M solution, does not include the Negro skin): 0.069 mg/cm^2 /hr.
- Flux ([1]; pH 7.0 of 1M solution, skin RB (Right Back), donor C): 0.0545 mg/cm^2 /hr. and 0.0678 mg/cm^2 /hr. and 0.0833 mg/cm^2 /hr.
- Flux ([1]; pH 7.0 of 1M solution, skin RB (Right Back), donor N): 0.0101 mg/cm^2 /hr. and 0.0057 mg/cm^2 /hr.
- Mean Flux ([1]; pH 7.5 of 1M solution, does not include the Negro skin): 0.185 mg/cm^2 /hr.
- Flux ([1]; pH 7.5 of 1M solution, skin RB (Right Back), donor C): 0.1651 mg/cm^2 /hr. and 0.1486 mg/cm^2 /hr. and 0.2246 mg/cm^2 /hr. and 0.2003 mg/cm^2 /hr.
- Flux ([1]; pH 7.5 of 1M solution, skin RB (Right Back), donor N): 0.0383 mg/cm^2 /hr.
- Mean Flux ([1]; pH 8.0 of 1M solution, C and N skin): 0.448 mg/cm^2 /hr.
- Flux ([1]; pH 8.0 of 1M solution, skin LB (Left Back), donor C): 0.4524 mg/cm^2 /hr. and 0.3817 mg/cm^2 /hr.
- amount transferred across skin ([1]; pH 9.0, across 5 cm^2 in 24 hours): approximately 85 mgs
- Mean Flux ([1]; pH 9.0 of 1M solution, C and N skin): 0.837 mg/cm^2 /hr.
- Flux ([1]; pH 9.0 of 1M solution, skin LB (Left Back), donor C): 0.8868 mg/cm^2 /hr. and 0.8154 mg/cm^2 /hr.
- Flux ([1]; pH 9.0 of 1M solution, skin RB (Right Back), donor C): 0.8551 mg/cm^2 /hr.
- difference in rate between Caucasian and Negro skin ([1]; pH values of 8 and 9): There does not appear to be any difference in rate
- dissociation to the free base [2]: 99.9%
- partition coefficient (K) ([3]; 0.01 M): 0.654
- partition coefficient (K) ([3]; 1.0 M): 0.756
- stability of the free base in solution [4]: rapidly hydrolizes

From patent US4680172A, “Devices and methods for treating memory impairment” (Ciba-Geigy Corporation, priority 1985, dated 1987)
